Laboratory results from patent US20260335456A1, “ANTIBODY-DRUG CONJUGATE HAVING CAMPTOTHECIN-BASED DRUG LINKED TO ANTIBODY HAVING LOW ANTIGEN-BINDING AFFINITY THROUGH LINKER” (PINOTBIO, INC., priority 2022, published 2026).
Values belong to the molecule of their own block, whether it stands above or below them.

Tests used:
DDX5 protein = DDX5 protein (Homo sapiens, UniProt P17844); assay: DDX5 degradation by camptothecin drugs; type: cell-based; conditions: FIGS. 7 to 10
DNA topoisomerase I = DNA topoisomerase I (Homo sapiens, UniProt P11387); conditions: versus SN-38 and topotecan; cited from earlier work
DNA topoisomerase I, sequence (P11387 whole entry): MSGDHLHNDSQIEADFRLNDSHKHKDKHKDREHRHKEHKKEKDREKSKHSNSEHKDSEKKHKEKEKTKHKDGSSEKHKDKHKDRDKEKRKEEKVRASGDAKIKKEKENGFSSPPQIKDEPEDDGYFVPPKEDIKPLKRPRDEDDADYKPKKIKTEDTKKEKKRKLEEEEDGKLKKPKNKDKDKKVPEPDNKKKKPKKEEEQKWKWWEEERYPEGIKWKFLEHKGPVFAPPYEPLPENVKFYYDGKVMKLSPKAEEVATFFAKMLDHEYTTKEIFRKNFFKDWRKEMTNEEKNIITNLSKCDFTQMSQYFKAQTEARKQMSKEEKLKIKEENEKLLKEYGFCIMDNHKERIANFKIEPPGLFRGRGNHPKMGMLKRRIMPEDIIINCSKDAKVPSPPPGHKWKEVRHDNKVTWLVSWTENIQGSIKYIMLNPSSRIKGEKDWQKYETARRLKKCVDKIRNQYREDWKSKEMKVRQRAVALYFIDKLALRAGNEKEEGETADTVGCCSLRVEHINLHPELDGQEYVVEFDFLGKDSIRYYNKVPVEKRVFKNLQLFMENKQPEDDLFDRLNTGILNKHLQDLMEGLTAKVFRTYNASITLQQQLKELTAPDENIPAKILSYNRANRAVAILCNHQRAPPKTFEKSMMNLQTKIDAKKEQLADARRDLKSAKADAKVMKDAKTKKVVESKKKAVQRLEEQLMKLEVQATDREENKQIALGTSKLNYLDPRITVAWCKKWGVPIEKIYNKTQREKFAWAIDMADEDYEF

[1] = tested on: HCT-8 and FaDu cell lines; assay: Western blot of anti-apoptotic proteins in HCT-8 and FaDu; type: cell-based; conditions: FIG. 6
Text: GAPDH is an enzyme involved in glycolysis, which is an essential metabolic process in cells.

in vitro cytotoxicity = assay: In vitro cytotoxicity of FL118, exatecan versus SN-38; type: cell-based; conditions: FIG. 5
ABCG2 = biological target: T1, ABCG2 (Homo sapiens, UniProt Q9UNQ0); assay: Sensitivity to ABCG2 transporter; type: cell-based
T1 sequence (Q9UNQ0 1-655): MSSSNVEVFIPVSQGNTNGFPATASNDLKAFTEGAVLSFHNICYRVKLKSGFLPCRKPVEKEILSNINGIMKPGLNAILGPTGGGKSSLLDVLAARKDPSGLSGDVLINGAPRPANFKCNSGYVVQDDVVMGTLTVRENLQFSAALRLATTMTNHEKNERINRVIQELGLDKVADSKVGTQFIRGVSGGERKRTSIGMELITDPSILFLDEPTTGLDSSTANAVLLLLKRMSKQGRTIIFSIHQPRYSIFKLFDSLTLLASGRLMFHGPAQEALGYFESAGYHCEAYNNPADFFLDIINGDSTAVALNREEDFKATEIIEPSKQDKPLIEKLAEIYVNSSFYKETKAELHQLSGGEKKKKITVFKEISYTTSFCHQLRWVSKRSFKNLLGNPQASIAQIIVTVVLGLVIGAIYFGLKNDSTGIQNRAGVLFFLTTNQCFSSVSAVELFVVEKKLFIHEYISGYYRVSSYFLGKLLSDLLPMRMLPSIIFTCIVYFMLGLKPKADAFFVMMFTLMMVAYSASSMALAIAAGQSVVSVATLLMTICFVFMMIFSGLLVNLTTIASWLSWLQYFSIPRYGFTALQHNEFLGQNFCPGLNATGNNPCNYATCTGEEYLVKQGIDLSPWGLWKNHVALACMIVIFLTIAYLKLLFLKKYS

various cancer cells = conditions: resistance due to expression of P-glycoprotein; cited from earlier work
[2] = Lactone to carboxylate form conversion in pH 7.4; type: physicochemical; conditions: for lactone to carboxylate conversion versus reference compounds: pH 7.4, reference: exatecan, DXd, SN-38, FL118; for rate of conversion from lactone to carboxylate form / degraded at 3 µM: pH 7.4, 37 °C; for degraded at 3 µM: PBS with 10% DMSO, read-out: carboxylate form formed
Procedure: 3-2. Lactone to Carboxylate Form Conversion in pH 7.4
Afterwards, it was centrifuged at 4 °C, 2 minutes, and 13,000 RCF conditions, and the supernatant was used as a sample.
The column used was Cortecs C18 2.7 μm, 4.6×50 mm Column, and analysis was conducted under the following conditions. 1) 20 minutes: 5% B, 2) sample injection, 3) 2 minutes: 5% B, 4) 10 minutes: 5% B→50% B, 5) 1 minute: 50% B.
In order to measure changes over time, the sample chamber was maintained at 37 °C, and the sample was set to be injected every measurement time. The measurement times were 0, 20, 40, 60, 90, 120, 180, 240, 300, 360, 480, 600 and 720 minutes.
The content was calculated from the peak area of each lactone and carboxylate. Since the absorption coefficients of lactone and carboxylate are different, the lactone area was obtained by multiplying the carboxylate area by the equation below.

A549 = assay: Cell viability assay in A549; type: cell-based; conditions: for efficacy / IC50 in ABCG2-overexpressing cells: A549, FIG. 9
Procedure: (§1) After 24 hours, 100 μL of the drug at 9 concentrations (serial dilution of 1/5 from 1,000 nM) was treated with the cells. […] In this case, a control group that was not treated with the drug (drug concentration 0) was also prepared. It was cultured at constant temperature (37 °C, 5% CO2) for 3 or 6 days. 100 μL of CellTiter-Glo reagent (using CellTiter-Glo® Luminescent Cell Viability Assay kit (Promega, G7571)) was added to each well and pipetted. After incubation at constant temperature (RT) for 10 minutes, luminescence was measured.

FaDu = assay: Cell viability assay in FaDu; type: cell-based
Procedure: as §1

several cell lines = conditions: cited from earlier work
MDA-MB-468 tumor model = assay: In vivo efficacy in MDA-MB-468 model (EGFR ADCs); set-up: species or system mouse
PDAC cells with DDX5 KO = conditions: cited from earlier work
A549 cell line = assay: Western blot of DDX5 and anti-apoptotic proteins in A549; type: cell-based; conditions: for DDX5 degradation ranking: FaDu and A549, 0, 10, 100 nM
[3] = tested on: cancer cell line Xenograft models; assay: FL118 xenograft and human tumor animal model efficacy; type: in vivo
Text: Genetic manipulation of DDX5 in PDAC cells affects tumor growth.
(§2) Meanwhile, camptothecin-based anticancer drugs show excellent anticancer responses initially when used in patients, but strong resistance to these drugs appears through Epigenetic Silencing of the Top1 gene and Top2 Dependence of cancer cells.

[4] = tested on: cancer cell line Xenograft models; conditions: cited from earlier work
rats and beagle dogs = assay: FL118 GLP-toxicity tests; type: in vivo; conditions: GLP-toxicity tests in rats and beagle dogs
Text: as §2

[5] = FL118 pharmacokinetics and tumor accumulation; type: in vivo
Text: For example, when applying ADC, maximum selectivity between tumor tissue and normal tissue is ensured.

FaDu cell line = assay: Western blot of DDX5 and anti-apoptotic proteins in FaDu; type: cell-based; conditions: 0, 10, 100 nM; for DDX5 degradation ranking: FaDu and A549; for expression of anti-apoptotic proteins: Survivin, cIAP2, Mcl-1, XIAP, 24 hours
Procedure: 1-1: Confirmation of Suppressive Activity of Expression of Cancer-Related Survival Genes of DDX5, Survivin, Mcl-1, XIAP and cIAP2 Through Western Blot
200,000 FaDu cell lines were seeded per well in a 6-well plate and incubated at constant temperature (37 °C, 5% CO2). […] It was incubated at constant temperature (37 °C, 5% CO2) for 24 hours. The well was treated with 100 μL of RIPA buffer dissolved in protease inhibitor cocktail. […] Protein concentration was determined through protein assay.
Electrophoresis was performed on the gel at 60V.
7 sheets of activated filter paper, PVDF membrane, gel and 7 sheets of filter paper were placed in order in the cassettes of the Trans-Blot® Turbo™ Transfer System, and the lid was closed, and after being inserted into the machine, the protocol started.
The transferred membrane was immersed in blocking buffer and incubated at constant temperature (RT, 1h). Next, it was incubated at 4 °C overnight in primary antibody solution. It was rinsed with TBST buffer for 3 minutes (repeated 3 times). Incubation was performed (RT, 1h) in a secondary antibody solution conjugated with HRP. It was rinsed with TBST buffer for 3 minutes (repeated 3 times).
After soaking the membrane in the ECL substrate for 3 to 5 minutes, the signal was determined by using the ChemiDoc™ MP Imaging System.

[6] = tested on: wide range of cancer cell lines; conditions: Lee et al.; cited from earlier work
patients = conditions: domestic clinical studies; cited from earlier work
[7] = Kim et al.; doses 10 times higher than the clinically applicable dose; cited from earlier work

DDX5 protein, sequence (P17844 whole entry): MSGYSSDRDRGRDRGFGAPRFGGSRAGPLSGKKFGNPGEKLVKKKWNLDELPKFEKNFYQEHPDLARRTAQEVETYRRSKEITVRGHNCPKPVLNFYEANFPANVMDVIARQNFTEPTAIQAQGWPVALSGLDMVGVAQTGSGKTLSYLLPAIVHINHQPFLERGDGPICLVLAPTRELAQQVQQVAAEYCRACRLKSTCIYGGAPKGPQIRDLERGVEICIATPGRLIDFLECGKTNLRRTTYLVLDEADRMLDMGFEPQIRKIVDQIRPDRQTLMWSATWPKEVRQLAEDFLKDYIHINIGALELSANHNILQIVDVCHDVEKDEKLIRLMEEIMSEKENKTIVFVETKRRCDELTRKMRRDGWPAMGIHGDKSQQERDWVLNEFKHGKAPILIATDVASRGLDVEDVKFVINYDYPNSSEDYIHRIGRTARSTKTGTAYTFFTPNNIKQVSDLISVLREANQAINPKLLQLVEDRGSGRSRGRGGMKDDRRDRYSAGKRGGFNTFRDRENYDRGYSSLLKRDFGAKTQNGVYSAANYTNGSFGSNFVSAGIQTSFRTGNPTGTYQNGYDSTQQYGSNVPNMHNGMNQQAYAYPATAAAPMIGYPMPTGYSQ

sensitivity to ABCG2 (ABCG2): almost unaffected by ABCG2
Molecule: CC[C@@]1(O)C(=O)OCc2c1cc1n(c2=O)Cc2c-1nc1cc(F)c(C)c3c1c2[C@@H](N)CC3 [Exatecan]
DDX5 degradation mechanism of action (DDX5 protein): exerts a mechanism of action (MoA) to degrade DDX5 protein
type I topoisomerase inhibitory activity (DNA topoisomerase I): stronger type I topoisomerase inhibitory activity than SN-38
downregulating tumor proteins versus SN-38 [1]: better efficacy in downregulating tumor proteins compared to the SN-38 drug
in vitro cytotoxicity versus SN-38 (in vitro cytotoxicity): better efficacy against in vitro cytotoxicity compared to SN-38
effect on cancer cells resistant to SN-38 and other drugs (various cancer cells): effective against cancer cells that are resistant to SN-38

Molecule: CC[C@@]1(O)C(=O)OCc2c1cc1n(c2=O)Cc2c-1nc1cc3c(c4c1c2[C@@H](NC(=O)[C@@H](O)C1CC1)CC4)OCO3 [PBX-7024]
lactone to carboxylate conversion versus reference compounds [2]: faster and at a higher rate than other reference compounds
sensitivity to ABCG2 (ABCG2): not affected by ABCG2
efficacy / IC50 in ABCG2-overexpressing cells (A549): still maintained strong efficacy
apoptosis effect (A549; A549, overexpresses ABCG2, 3 days): strong apoptosis effect
IC50 compared to Dxd (A549; FaDu and A549, 3 days, FIG. 9): IC50 of an equal or higher level compared to Dxd
IC50 compared to Dxd (FaDu; 3 days, FIG. 9): IC50 of an equal or higher level compared to Dxd
apoptosis effect (FaDu; does not express ABCG2, 3 days): strong apoptosis effect

Molecule: CCc1c2c(nc3ccc(O)cc13)-c1cc3c(c(=O)n1C2)COC(=O)[C@]3(O)CC [SN-38]
sensitivity to ABCG2 (ABCG2): show resistance in the way that the drug is released out of the cell due to overexpression of the ABCG2 Transporter
IC50 (several cell lines): nanomolar range

Molecule: Nimotuzumab-CL2A-FL118: nimotuzumab ADC with CL2A-FL118 (Example 4)
efficacy (MDA-MB-468 tumor model; 1 mpk, 5 mpk and 10 mpk, versus cetuximab-based ADC): better efficacy
in vivo efficacy versus Cetuximab-CL2A-FL118 (MDA-MB-468 tumor model; FIG. 22): better efficacy compared to Cetuximab-CL2A-FL118

Molecule: CC[C@@]1(O)C(=O)OCc2c1cc1n(c2=O)Cc2cc3cc4c(cc3nc2-1)OCO4 [FL118, 10, 11-methylenedioxy-camptothecin]
DDX5 degradation mechanism of action (DDX5 protein): directly binds to the tumor protein DDX5
downregulating tumor proteins versus SN-38 [1]: better efficacy in downregulating tumor proteins compared to the SN-38 drug
in vitro cytotoxicity versus SN-38 (in vitro cytotoxicity): better efficacy against in vitro cytotoxicity compared to SN-38
sensitivity of DDX5 KO cells (PDAC cells with DDX5 KO): resistant
DDX5 degradation ranking (A549 cell line): superior to other substances
sensitivity to ABCG2 (ABCG2): not affected by the ABCG2 Transporter
xenograft efficacy, Top1 not expressed ([3]; Epigenetic Silencing or Knock-out of Top1): strong efficacy
anticancer efficacy after SN-38 resistance ([3]; after inducing SN-38 resistance in tumor xenograft): strong anticancer efficacy
tumor regression efficacy ([3]; same amount as SN-38, colon, head and neck, pancreatic cancer): stronger tumor regression efficacy than SN-38
xenograft efficacy ([3]; versus SN-38 in various cancer cell line Xenograft models): superior efficacy compared to SN-38
efficacy in eliminating human PDAC and CRC tumors, high DDX5 expression ([4]; high DDX5 expression): high efficacy
efficacy in PDAC and CRC tumors, low DDX5 expression ([4]; low DDX5 expression): less effective
safety (rats and beagle dogs): excellent safety
accumulation in cancer tissue ([5]; immediately after administration): accumulates quickly in cancer tissue
blood clearance ([5]; systemic administration alone): rapidly metabolized and excreted from the blood
DDX5 degradation ranking (FaDu cell line): superior to other substances

Molecule: CC[C@@]1(O)C(=O)OCc2c1cc1n(c2=O)Cc2c-1nc1cc(F)c(C)c3c1c2[C@@H](NC(=O)CO)CC3 [Dxd, reference compound]
DDX5 degradation mechanism of action (DDX5 protein): exerts a mechanism of action (MoA) to degrade DDX5 protein
rate of conversion from lactone to carboxylate form [2]: 0.6 % per minute
degraded at 3 µM [2]: 76.5%
sensitivity to ABCG2 (ABCG2): strongly influenced by ABCG2
efficacy / IC50 in ABCG2-overexpressing cells (A549): increased IC50 values

Molecule: CC[C@@]1(O)C(=O)OCc2c1cc1n(c2=O)Cc2c-1nc1cc3c(c4c1c2[C@@H](NC(=O)CO)CC4)OCO3 [PBX-7014]
dual mechanism (topoisomerase I inhibition and DDX5 degradation) (A549 cell line): dual MoA that acts as a degrader of DDX5 (p68)
DDX5 degradation ranking (A549 cell line): followed by 7011, 7016 and 7014
rate of conversion from lactone to carboxylate form [2]: 0.8 % per minute
degraded at 3 µM [2]: > 86%
lactone to carboxylate conversion versus reference compounds [2]: faster and at a higher rate than other reference compounds
DDX5 degradation ranking (FaDu cell line): followed by 7011, 7016 and 7014
expression of anti-apoptotic proteins (FaDu cell line): decrease in the expression of Survivin, cIAP2, Mcl-1 and XIAP as the concentration increased

Molecule: CC[C@@]1(O)C(=O)OCc2c1cc1n(c2=O)Cc2c-1nc1cc3c(c4c1c2[C@@H](N)CC4)OCO3 (single isomer, unassigned) [PBX-7011]
DDX5 degradation ranking (A549 cell line): followed by 7011, 7016 and 7014
DDX5 degradation ranking (FaDu cell line): followed by 7011, 7016 and 7014
expression of anti-apoptotic proteins (FaDu cell line): decrease in the expression of Survivin, cIAP2, Mcl-1 and XIAP as the concentration increased

Molecule: CC[C@@]1(O)C(=O)OCc2c1cc1n(c2=O)Cc2c-1nc1ccccc1c2CCNC(C)C [CKD-602]
anticancer effects versus camptothecin and topotecan [6]: superior anticancer effects compared to camptothecin and topotecan
side effects in clinical studies (patients): only reversible and controllable side effects such as neutropenia and leukopenia
adverse drug reactions [7]: no adverse drug reactions other than increased gastric secretion
